# Paper PMC6272981, “A Selective Cyclic Peptidic Human SIRT5 Inhibitor” (Molecules, 2016)
# Where “and” joins values, the source holds several entries; their conditions need not be identical. Identical values can stand only once. *1 amine or outer side, *2 acyl side, *3 side chain or, on linkers, in order; H or OH if unused. Where a SMILES comes first, the peptide text is derived from it. Bridges are numbered along the chain shown (N, C = ends). [ ]: non-standard residue; d: D form. Suberoyl(Gly)2 = O=C(CCCCCCC(=O)NCC(=O)[*:2])NCC(=O)[*:1]; X1 = O=C(O)CCNC(=S)NCCCC[C@H](N[*:1])C(=O)[*:2]; Suberoyl = O=C(CCCCCCC(=O)[*:2])[*:1]
# Legend:
# [1] = target: T1, human recombinant GST-SIRT5 (Homo sapiens, UniProt Q9NXA8); experiment: HPLC-based in vitro sirtuin inhibition assay, SIRT5-catalyzed deacylation (desuccinylation); type: biochemical; conditions: GST-SIRT5 370 nM, 0.8 mM β-NAD+, 0.88 mM succinyl-lysine H3 peptide substrate, 37 °C, 5 min; estimated from Dixon plots
# T1 construct: purchased Cayman Chemical (Ann Arbor, Michigan, USA)
# T1 sequence (Q9NXA8 37-310): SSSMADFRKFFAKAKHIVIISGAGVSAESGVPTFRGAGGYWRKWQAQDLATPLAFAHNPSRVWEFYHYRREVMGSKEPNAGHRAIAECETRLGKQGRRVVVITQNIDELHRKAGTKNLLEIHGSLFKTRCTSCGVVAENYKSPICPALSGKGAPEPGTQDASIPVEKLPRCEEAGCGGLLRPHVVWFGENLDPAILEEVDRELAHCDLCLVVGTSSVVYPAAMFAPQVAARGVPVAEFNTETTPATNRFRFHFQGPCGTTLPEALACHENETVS
# Source text: (§1) The following materials were purchased from commercial vendors for the sirtuin inhibition assay and the pronase digestion assay, and were used as received without further treatment. Sigma-Aldrich China: the active human recombinant His6-SIRT1, Trizma, Hepes, β-NAD^+, a 1.0 M solution of MgCl2 (molecular-biology grade), the pronase from Streptomyces griseus; Cayman Chemical (Ann Arbor, Michigan, USA): the active human recombinant GST-SIRT1, the active human recombinant His6-SIRT2, the active human recombinant His6-SIRT3, the active human recombinant GST-SIRT5, the active human recombinant His6-SIRT6; TCI Shanghai: D,L-dithiothreitol (DTT); Alfa Aesar China: NaCl, KCl.
# (§2) The peptide substrates prepared and used in the sirtuin inhibition assay were: the SIRT1/2/3 substrate H2N-HK-[N^ε-acetyl-lysine]-LM-COOH corresponding to amino acids 380–384 of the human p53 protein acetylated at K^382; the SIRT5 substrate CH3CONH-AR-[N^ε-succinyl-lysine]-ST-CONH2 corresponding to amino acids 7–11 of the human histone H3 protein succinylated at K^9; the SIRT6 substrate H2N-EALPK-[N^ε-myristoyl-lysine]-TGGPQ-CONH2 corresponding to amino acids 15–25 of the human tumor necrosis factor α (TNFα) myristoylated at K^20.
# (§3) The HPLC-based sirtuin inhibition assay that our laboratory has been using over past several years was employed in the current study and was performed as described previously. […]
# [2] = target: T2, human recombinant His6-SIRT2 (Homo sapiens, UniProt Q8IXJ6); experiment: HPLC-based in vitro sirtuin inhibition assay, SIRT2-catalyzed deacetylation; type: biochemical; conditions: His6-SIRT2 309 nM, 0.5 mM β-NAD+, 0.39 mM acetyl-lysine p53 peptide substrate, 37 °C, 12 min; Dixon plots
# T2 construct: purchased Cayman Chemical (Ann Arbor, Michigan, USA)
# T2 sequence (Q8IXJ6 1-389): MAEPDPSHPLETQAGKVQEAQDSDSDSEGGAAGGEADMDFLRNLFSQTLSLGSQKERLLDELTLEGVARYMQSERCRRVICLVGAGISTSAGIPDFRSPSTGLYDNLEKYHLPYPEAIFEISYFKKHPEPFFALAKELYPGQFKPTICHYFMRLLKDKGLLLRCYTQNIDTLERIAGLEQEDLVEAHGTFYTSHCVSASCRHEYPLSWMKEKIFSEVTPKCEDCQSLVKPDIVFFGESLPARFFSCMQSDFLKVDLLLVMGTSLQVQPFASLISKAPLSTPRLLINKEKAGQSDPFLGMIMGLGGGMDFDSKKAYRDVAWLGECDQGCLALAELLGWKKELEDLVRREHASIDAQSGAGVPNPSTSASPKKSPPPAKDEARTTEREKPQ
# Source text: as §1, §2, §3
# [3] = target: T3, human recombinant His6-SIRT6 (Homo sapiens, UniProt Q8N6T7); experiment: HPLC-based in vitro sirtuin inhibition assay, SIRT6 (demyristoylation); type: biochemical; conditions: His6-SIRT6 313 nM, 0.2 mM β-NAD+, 0.02 mM myristoyl-lysine TNFα peptide substrate, 37 °C, 12 min; Dixon plots
# T3 construct: purchased Cayman Chemical (Ann Arbor, Michigan, USA)
# T3 sequence (Q8N6T7 whole entry): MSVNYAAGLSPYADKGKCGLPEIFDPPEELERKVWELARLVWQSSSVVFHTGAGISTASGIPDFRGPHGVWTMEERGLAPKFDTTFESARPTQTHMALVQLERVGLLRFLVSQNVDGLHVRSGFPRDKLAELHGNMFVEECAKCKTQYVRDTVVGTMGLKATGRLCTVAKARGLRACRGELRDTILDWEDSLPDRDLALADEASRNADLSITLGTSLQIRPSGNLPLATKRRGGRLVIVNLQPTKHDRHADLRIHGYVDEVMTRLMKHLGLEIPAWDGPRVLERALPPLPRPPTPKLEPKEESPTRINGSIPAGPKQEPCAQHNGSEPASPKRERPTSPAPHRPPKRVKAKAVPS
# Source text: as §1, §2, §3
# [4] = target: T4, human recombinant His6-SIRT3 (Homo sapiens, UniProt Q9NTG7); experiment: HPLC-based in vitro sirtuin inhibition assay, SIRT3; type: biochemical; conditions: His6-SIRT3 320 nM, 3.5 mM β-NAD+, 0.105 mM acetyl-lysine p53 peptide substrate, 37 °C, 10 min; Dixon plots
# T4 construct: purchased Cayman Chemical (Ann Arbor, Michigan, USA)
# T4 sequence (Q9NTG7 1-399): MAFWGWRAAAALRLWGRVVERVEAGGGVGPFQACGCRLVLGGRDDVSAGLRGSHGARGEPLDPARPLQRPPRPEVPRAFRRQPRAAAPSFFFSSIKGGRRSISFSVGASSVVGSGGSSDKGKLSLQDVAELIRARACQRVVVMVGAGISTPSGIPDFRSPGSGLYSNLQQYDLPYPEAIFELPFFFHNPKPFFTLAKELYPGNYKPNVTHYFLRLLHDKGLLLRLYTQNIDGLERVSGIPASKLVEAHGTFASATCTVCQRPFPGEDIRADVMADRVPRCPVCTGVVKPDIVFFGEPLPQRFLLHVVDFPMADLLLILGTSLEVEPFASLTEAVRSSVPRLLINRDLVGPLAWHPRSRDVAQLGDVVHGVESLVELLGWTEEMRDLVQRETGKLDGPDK
# Source text: as §1, §2, §3
# [5] = target: T5, human recombinant His6-SIRT1 or GST-SIRT1 (Homo sapiens, UniProt Q96EB6); experiment: HPLC-based in vitro sirtuin inhibition assay, SIRT1; type: biochemical; conditions: SIRT1 320 nM, 0.5 mM β-NAD+, 0.3 mM acetyl-lysine p53 peptide substrate, 37 °C, 10 min; Dixon plots
# T5 construct: His6 or GST (one of the two); purchased Sigma-Aldrich China (His6-SIRT1) or Cayman Chemical (GST-SIRT1)
# T5 sequence (Q96EB6 1-747): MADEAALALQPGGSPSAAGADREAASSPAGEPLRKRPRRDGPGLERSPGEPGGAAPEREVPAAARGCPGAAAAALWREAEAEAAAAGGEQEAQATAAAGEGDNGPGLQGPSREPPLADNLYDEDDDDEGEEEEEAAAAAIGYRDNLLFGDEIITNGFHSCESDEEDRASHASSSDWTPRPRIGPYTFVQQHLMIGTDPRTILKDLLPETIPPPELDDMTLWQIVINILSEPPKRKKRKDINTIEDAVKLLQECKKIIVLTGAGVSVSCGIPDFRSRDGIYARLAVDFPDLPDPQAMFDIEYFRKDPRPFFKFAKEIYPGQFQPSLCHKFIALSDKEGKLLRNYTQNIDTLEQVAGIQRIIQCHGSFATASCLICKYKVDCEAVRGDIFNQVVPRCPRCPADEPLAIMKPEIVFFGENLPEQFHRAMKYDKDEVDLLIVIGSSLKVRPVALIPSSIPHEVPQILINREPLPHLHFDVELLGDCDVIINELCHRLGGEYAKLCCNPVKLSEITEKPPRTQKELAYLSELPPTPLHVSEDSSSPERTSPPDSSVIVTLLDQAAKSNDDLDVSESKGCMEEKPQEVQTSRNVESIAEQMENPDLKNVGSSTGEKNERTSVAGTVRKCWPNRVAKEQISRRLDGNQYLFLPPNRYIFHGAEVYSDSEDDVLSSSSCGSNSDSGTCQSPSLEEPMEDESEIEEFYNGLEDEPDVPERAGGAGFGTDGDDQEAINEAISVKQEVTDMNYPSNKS
# Source text: as §1, §2, §3
# [6] = tested on: SIRT5; conditions: SIRT5 desuccinylation assay; cited from earlier work
# [7] = tested on: SIRT3; conditions: cited from earlier work
# [8] = tested on: SIRT2; conditions: cited from earlier work
# [9] = tested on: SIRT1; conditions: cited from earlier work
Compound,IC50 [1],IC50 [2],IC50 [3],IC50 [4],IC50 SIRT1 [5],IC50 [6],IC50 [7],IC50 [8],IC50 [9]
CC(=O)N[C@H]1CCCCNC(=O)CCCCCCC(=O)NCCCC[C@@H](C(=O)N[C@H](C(N)=O)[C@@H](C)O)NC(=O)[C@H](CCCCNC(=S)NCCC(=O)O)NC(=O)[C@H](CCCNC(=N)N)NC1=O [Compound 5] (Ac-KR[X1]KT-NH2; linker 1-4 via Suberoyl),~7.5 µM and 7.5 µM,> 1000 µM,> 200 µM,> 200 µM,>1000 µM,,,,
CC(=O)N[C@@H](C)C(=O)N[C@@H](CCCNC(=N)N)C(=O)N[C@@H](CCCCNC(=S)NCCC(=O)O)C(=O)N[C@@H](CO)C(=O)N[C@H](C(N)=O)[C@@H](C)O [Compound 6] (Ac-AR[X1]ST-NH2),7.6 ± 1.5 µM,96.4 ± 18.5 µM,> 1000 µM,> 1000 µM,>1000 µM,,,,
CH3CONH-AR-(N^ε-thiosuccinyl-lysine)-ST-CONH2,,,,,,~40 µM,,,
C=CCN1C(=O)/C(=C/c2ccc(-c3cccc(Cl)c3Cl)o2)C(=O)NC1=S [Compound 3],,,,,,2.3 µM,> 50 µM,9.7 µM,5.3 µM
CC(=O)N[C@H]1CCCCNC(=O)CNC(=O)CCCCCCC(=O)NCC(=O)NCCCC[C@@H](C(=O)N[C@H](C(N)=O)[C@@H](C)O)NC(=O)[C@H](CCCCNC(=S)NCCC(=O)O)NC(=O)[C@H](CCCNC(=N)N)NC1=O [Compound 4] (Ac-KR[X1]KT-NH2; linker 1-4 via Suberoyl(Gly)2),~6 µM and 6 µM,~9.2 µM and 9.2 µM,,,,,,,
